Laboratory results taken from publication PMC2701686 (Analytical biochemistry, 2008).

Target: thyroid hormone receptor β (TRβ) (Homo sapiens, UniProt P10828)
Assay: biochemical

Sequence of thyroid hormone receptor β (TRβ) (P10828 82-456): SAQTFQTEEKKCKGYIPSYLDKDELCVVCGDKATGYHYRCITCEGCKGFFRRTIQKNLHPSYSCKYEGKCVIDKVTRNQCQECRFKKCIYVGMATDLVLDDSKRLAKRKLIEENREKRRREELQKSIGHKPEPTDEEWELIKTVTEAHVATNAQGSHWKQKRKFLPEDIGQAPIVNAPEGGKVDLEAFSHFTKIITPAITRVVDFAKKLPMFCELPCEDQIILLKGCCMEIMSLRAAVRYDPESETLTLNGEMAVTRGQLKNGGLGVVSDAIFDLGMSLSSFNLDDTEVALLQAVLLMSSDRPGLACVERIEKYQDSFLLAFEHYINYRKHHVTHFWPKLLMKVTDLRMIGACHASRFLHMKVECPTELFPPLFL
Sequence of thyroid hormone receptor β (TRβ) (P19793 whole entry partner): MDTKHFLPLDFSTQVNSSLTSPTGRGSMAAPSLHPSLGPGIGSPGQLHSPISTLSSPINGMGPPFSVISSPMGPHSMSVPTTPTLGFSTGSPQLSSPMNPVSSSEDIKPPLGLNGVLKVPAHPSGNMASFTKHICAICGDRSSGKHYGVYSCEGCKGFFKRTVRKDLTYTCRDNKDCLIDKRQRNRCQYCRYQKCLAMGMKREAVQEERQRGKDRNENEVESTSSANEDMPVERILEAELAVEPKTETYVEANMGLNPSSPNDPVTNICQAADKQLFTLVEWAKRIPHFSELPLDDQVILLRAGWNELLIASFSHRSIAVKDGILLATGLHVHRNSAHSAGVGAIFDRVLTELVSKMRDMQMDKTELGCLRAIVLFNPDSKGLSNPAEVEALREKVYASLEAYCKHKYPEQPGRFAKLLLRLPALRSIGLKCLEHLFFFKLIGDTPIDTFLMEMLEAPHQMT
Sequence of thyroid hormone receptor β (TRβ) (Q60974 2057-2453 partner): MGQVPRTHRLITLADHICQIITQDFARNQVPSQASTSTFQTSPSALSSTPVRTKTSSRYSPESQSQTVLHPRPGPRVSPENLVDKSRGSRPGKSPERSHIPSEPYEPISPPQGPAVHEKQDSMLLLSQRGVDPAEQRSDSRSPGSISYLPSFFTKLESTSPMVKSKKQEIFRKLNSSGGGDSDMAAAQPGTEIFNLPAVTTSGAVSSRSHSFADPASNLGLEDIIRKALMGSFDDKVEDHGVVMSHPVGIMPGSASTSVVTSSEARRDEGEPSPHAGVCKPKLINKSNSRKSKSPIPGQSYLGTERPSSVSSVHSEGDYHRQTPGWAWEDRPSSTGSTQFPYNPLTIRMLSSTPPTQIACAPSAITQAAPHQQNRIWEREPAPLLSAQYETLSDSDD
Sequence of thyroid hormone receptor β (TRβ) (Q9Y6Q9 627-829 partner): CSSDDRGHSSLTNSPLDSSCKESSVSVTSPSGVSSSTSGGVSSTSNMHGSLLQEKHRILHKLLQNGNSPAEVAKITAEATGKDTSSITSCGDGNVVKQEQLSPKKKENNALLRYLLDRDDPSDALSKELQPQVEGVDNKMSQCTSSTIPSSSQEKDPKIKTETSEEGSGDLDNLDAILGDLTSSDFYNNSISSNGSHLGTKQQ

- IC50: 1090 ± 80 nM
Structure (SMILES): Cc1cc(OCC(=O)O)cc(C)c1Cc1cc(C#Cc2ccc([N+](=O)[O-])cc2)c(O)c(C(C)C)c1 [NH-3, {4-[4-hydroxy-3’-isopropyl-5-(4-nitrophenylethynyl)benzyl]-3,5-dimethylphenoxy}acetic acid]
